# Assay results: US20150290294A1, “METHODS FOR INHIBITING PLATELET AGGREGATION USING GLP-1 RECEPTOR AGONISTS” (priority 2012, published 2015)
# Ends that are not written are not given here.
# Key:
# MEG-01 cells = experiment: Intracellular cAMP EIA assay; assay type: cell-based, human
# Protocol: An EIA kit (Cayman Chemicals) was employed to measure intracellular cAMP levels. […] 3-isobutyl-1-methylxanthine (IBMX) was added to each well at a concentration of 0.5 μM and allowed to incubate for 10 min at 37° C. to inhibit phosphodiesterase activity. As a positive control for cAMP generation in MEG-01 cells, PGI2 was added at a concentration of 0.02 ng/ml to control wells and incubated for 10 min at 37° C. PBS was used as a negative control. After incubation, cells were lysed by adding EDTA to a concentration of 10 mM. Lysed cells were transferred to 1.5 ml eppendorf tubes and boiled for 5 min at 95° C. Samples were spun down at 10000 xg for 15 min at 4° C. Supernatant was removed and frozen at −80° C. The cAMP EIA kit assay was then carried out according to manufacturer's instructions.
# Given the limited specificity of Abs raised against GPCRs, RT-PCR was performed on RNA from MEG-01 cells with primers designed to yield full-length human GLP-1R cDNA.
# platelets = details: associated with inhibitory effect on intracellular free calcium and tyrosine phosphorylation; cited from earlier work
# [1] = system: human gel-filtered platelets; experiment: Thrombin-induced platelet aggregation (aggregometer); assay type: cell-based; details: for effect on thrombin-induced human platelet aggregation vs PBS control: 100 pM-1 uM (10^-10 to 10^-6 M); for effect on thrombin-induced human platelet aggregation vs PBS control / effect on human platelet aggregation after thrombin stimulation: 15 min 37 °C; for effect on human platelet aggregation after thrombin stimulation: 10 nM each, 0.5 U thrombin
# Protocol: Platelets were then stimulated with thrombin and aggregation was measured using an aggregometer.
compound,measurement,setting,value
"CCCCC[C@H](O)/C=C/[C@@H]1[C@H]2C/C(=C/CCCC(=O)O)O[C@H]2C[C@H]1O [PGI2, prostacyclin PGI2, reference compound]",cAMP response (positive control),"MEG-01 cells; PGI2 0.02 ng/ml, 10 min 37 °C",16 fold
N[C@@H](CC(=O)N1CCn2c(nnc2C(F)(F)F)C1)Cc1cc(F)c(F)cc1F [sitagliptin],anti-platelet activity,platelets,exhibited anti-platelet activity
GLP-1(7-36),effect on thrombin-induced human platelet aggregation vs PBS control,[1]; thrombin 0.125 U,delayed and reduced
same,effect on thrombin-induced human platelet aggregation vs PBS control,"[1]; thrombin 0.125 U, listed as GLP-1",delayed and reduced platelet aggregation
same,effect on human platelet aggregation after thrombin stimulation,[1],delayed human platelet aggregation
same,total area under curve of aggregation,"[1]; between 0.1 nM and 100 nM, thrombin 0.125 U, not significant, n=3",some inhibition of platelet activity
same,"intracellular cAMP, qualitative","MEG-01 cells; 15 min incubation, 100 pM to 100 nM, n=3",dose-dependent increase in cAMP
GLP-1(9-36) (EGTFTSDVSSYLEGQAAKEFIAWLVKGR-NH2),effect on human platelet aggregation after thrombin stimulation,[1],delayed human platelet aggregation
same,effect on human platelet aggregation after thrombin stimulation,[1]; listed as GLP-1(9-36)^NH2,"inhibited human platelet aggregation, but to a lesser extent than GLP-1(7-36)^NH2"
